The target of the test is T1, MR (Homo sapiens, UniProt P08235).
T1 sequence (P08235 726-984 limits assumed): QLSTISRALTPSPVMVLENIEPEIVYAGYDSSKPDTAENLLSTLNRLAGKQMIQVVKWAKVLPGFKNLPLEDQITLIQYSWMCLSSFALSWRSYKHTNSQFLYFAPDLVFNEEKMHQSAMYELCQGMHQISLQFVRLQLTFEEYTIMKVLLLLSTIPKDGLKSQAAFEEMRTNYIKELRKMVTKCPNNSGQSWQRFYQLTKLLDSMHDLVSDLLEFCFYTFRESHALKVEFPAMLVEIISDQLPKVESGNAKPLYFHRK
Description: In vitro evaluation of MR antagonistic activity (HEK293/Gal4/MR cell line, Bright Glo). The format is cell-based. Particulars: HEK293/Gal4/MR cells, aldosterone final 1 nmol, 24 h incubation. As to the method:
Purpose of Experiment: to assay the MR antagonistic activity of the compounds
A DMEM medium purchased from BI; fetal bovine serum purchased from Biosera; an HEK293/Gal4/MR cell line provided by Wuhan Heyan Biomedical Technology Co., Ltd.; Bright Glo purchased from Promega; and an EnVision multi-marker analyzer (PerkinElmer).
MR cells were seeded in a white 96-well plate, with […] of cell suspension containing 40000 cells added to each well. The cell plate was incubated in a CO2 incubator overnight.
The compounds to be tested were serially 5-fold diluted to the 8th concentration point with a multi-channel pipette, and the compound concentration ranged from 2 mmol to […]. 38 μL of the medium was added to an intermediate plate, and the compound was added to corresponding wells of the intermediate plate at 2 μL/well. After well mixing, the compound solution was transferred to the cell plate at 10 μL/well, and the cell plate was incubated in a CO2 incubator for 1 h. Aldosterone was diluted to 10 nmol with a medium, i.e., 20 μL of aldosterone with a concentration of 1 μmol was added to 1980 μL of the medium. After well mixing, 10 μL of the aldosterone solution was added to each well of the cell plate except the positive control wells. The cell plate was incubated in a CO2 incubator for 24 h. The final concentration of the compound ranged from 10 μmol to 0.128 nmol, and the final concentration of aldosterone was 1 nmol. After the incubation was completed, the cell supernatant was discarded, and the Bright Glo reagent was added to the cell plate at 100 μL/well. Readings were taken immediately on the EnVision multi-marker analyzer.
The original data were converted to inhibition rates using the following equation: % inhibition=((RFUcmpd−AVER(RFUNeg.Ctrl))/((AVER(RFUPos.Ctrl)−AVER(RFUNeg.Ctrl))×100%. Compound curves were fitted by log(inhibitor) vs. response-Variable slope of Graphpad Prism 5. IC50 values were calculated by the software using the following formula: Y=Bottom+(Top−Bottom)/(1+10^((Log IC50−X)×HillSlope)).

The compound `CNC(=O)CC1COc2cc(F)ccc2N1C(C)c1ccc2c(c1)NC(=O)CO2` (stereo not shown) [Compound 6] showed an IC50 of 273 nM. Next, `[2H]C([2H])([2H])c1noc(C[C@H]2COc3cc(F)ccc3N2Cc2cc3c(cc2F)OCC(=O)N3)n1` [Compound 29]: 22 nM; `Cn1nnc(C[C@H]2COc3cc(F)ccc3N2Cc2ccc3c(c2Cl)NC(=O)CO3)n1` [Compound 38]: 22.6 nM; `Cn1nnc(C[C@H]2COc3cc(F)ccc3N2Cc2ccc3c(c2F)NC(=O)CO3)n1` [Compound 33]: 11 nM. Then `O=C1COc2ccc(CN3c4ccc(F)cc4OC[C@@H]3Cc3c[nH]nn3)c(F)c2N1` [Compound 32], with 50.8 nM. Then `NC(=O)CC1COc2cc(F)cc(F)c2N1Cc1ccc2c(c1Cl)NC(=O)CO2` (single isomer, unassigned) [Compound 43a], with 18 nM; and `Cn1nnc(C[C@H]2COc3cc(F)ccc3N2Cc2cc(Cl)c3c(c2)NC(=O)CO3)n1` [Compound 26], with 32 nM; and `Cc1nnn(C[C@H]2COc3cc(F)ccc3N2Cc2ccc3c(c2)NC(=O)CO3)n1` [Compound 14], with 78 nM. `Cc1noc(C[C@H]2COc3cc(F)ccc3N2Cc2ccc3c(c2F)NC(=O)CO3)n1` [Compound 22] gave a 50% inhibitory concentration (IC50) of 9 nM. Next, `CNC(=O)CC1COc2cc(F)cc(F)c2N1Cc1ccc2c(c1)NC(=O)CO2` (stereo not shown) [Compound 5]: 325 nM; `[2H]C([2H])([2H])n1nnc(C[C@H]2COc3cc(F)ccc3N2Cc2ccc3c(c2)NC(=O)CO3)n1` [Compound 34]: 130 nM. Next, `Cc1noc(C[C@H]2COc3cc(F)ccc3N2Cc2cc(F)c3c(c2)NC(=O)CO3)n1` [Compound 18]: 62 nM; `O=C1COc2ccc(CN3c4ccc(F)cc4OC[C@@H]3Cn3nccn3)cc2N1` [Compound 21]: 50 nM.

In turn, `Cc1nnn(C[C@H]2COc3cc(F)ccc3N2Cc2cc3c(cc2F)OCC(=O)N3)n1` [Compound 24] had a half-inhibitory concentration (IC50) of 32 nM. Then `Cn1nnc(C[C@H]2COc3cc(F)ccc3N2Cc2cc3c(cc2F)OCC(=O)N3)n1` [Compound 30], with 68 nM; and `[2H]C([2H])(c1ccc2c(c1)NC(=O)CO2)N1c2ccc(F)cc2OC[C@@H]1Cc1nc(C)no1` [Compound 23], with 29 nM; and `Cn1nnc(C[C@H]2COc3cc(F)ccc3N2Cc2ccc3c(c2)NC(=O)CO3)n1` [Compound 27], with 80 nM. On to `[2H]C([2H])([2H])c1noc(C[C@H]2COc3cc(F)ccc3N2Cc2ccc3c(c2)NC(=O)CO3)n1` [Compound 28], for which the midpoint of inhibition, the IC50, lay at 35 nM.

Regarding `Cc1noc(CC2COc3cc(F)ccc3N2C(C)c2ccc3c(c2)NC(=O)CO3)n1` (single isomer, unassigned) [Compound 35b], half-maximal inhibition (IC50) was put at 76.6 nM. On to `O=C1COc2cc(F)c(CN3c4ccc(F)cc4OC[C@@H]3Cn3nccn3)cc2N1` [Compound 20], for which the concentration for half-maximal inhibition (IC50) came out at 27 nM. Then `Cc1noc(C[C@H]2COc3cc(F)ccc3N2Cc2ccc3c(c2)NC(=O)CO3)n1` [Compound 12], with 27 nM; and `CNC(=O)CC1COc2cc(F)cc(F)c2N1Cc1cc(C)c2c(c1)NC(=O)CO2` (single isomer, unassigned) [Compound 8a], with 130 nM. Then `Cc1noc(C[C@H]2COc3cc(F)ccc3N2Cc2cc3c(cc2F)OCC(=O)N3)n1` [Compound 19], with 66 nM; and `O=C1COc2ccc(CN3c4ccc(F)cc4OC[C@@H]3Cc3nc(CO)no3)cc2N1` [Compound 15], with 107 nM. Turning to `CNC(=O)CC1COc2cc(F)ccc2N1Cc1cc(Cl)c2c(c1)NC(=O)CO2` (stereo not shown) [Compound 4], inhibition was half-maximal at 289 nM (IC50). Next, `CS(=O)(=O)CC1COc2cc(F)ccc2N1Cc1ccc2c(c1)NC(=O)CO2` (stereo not shown) [Compound 7]: 519 nM; `Cc1nc(C[C@H]2COc3cc(F)ccc3N2Cc2cc(Cl)c3c(c2)NC(=O)CO3)no1` [Compound 25]: 72 nM; `CCNC(=O)C[C@H]1COc2cc(F)ccc2N1Cc1ccc2c(c1)NC(=O)CO2` [Compound 9]: 403 nM.

Source of the values: US20250034099A1, “BENZOXAZINONE DERIVATIVES” (CHIA TAI TIANQING PHARMACEUTICAL GROUP CO., LTD., priority 2021, published 2025).
